ChEMBL document CHEMBL1148194, “Dysinosins B-D, inhibitors of factor VIIa and thrombin from the Australian sponge Lamellodysidea chlorea” (J Nat Prod, 2004)

What was measured:
Coagulation factor VII = target: T1, Coagulation factor VII (Homo sapiens, UniProt P08709); assay: Inhibition of factor 7a by spectrophotometric assay
T1 sequence (P08709 whole entry): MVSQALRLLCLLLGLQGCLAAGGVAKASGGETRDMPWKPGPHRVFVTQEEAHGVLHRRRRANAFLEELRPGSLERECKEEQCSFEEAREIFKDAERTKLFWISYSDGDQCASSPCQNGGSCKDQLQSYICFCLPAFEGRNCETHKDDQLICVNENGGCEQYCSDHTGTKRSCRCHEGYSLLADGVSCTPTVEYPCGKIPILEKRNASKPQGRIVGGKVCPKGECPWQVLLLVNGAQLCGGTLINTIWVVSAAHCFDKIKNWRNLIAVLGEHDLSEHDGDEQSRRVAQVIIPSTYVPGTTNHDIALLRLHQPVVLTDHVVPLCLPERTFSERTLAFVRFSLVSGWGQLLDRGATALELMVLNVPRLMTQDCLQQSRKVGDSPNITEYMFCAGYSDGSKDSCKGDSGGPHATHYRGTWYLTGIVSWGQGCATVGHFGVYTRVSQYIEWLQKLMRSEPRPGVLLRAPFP

Prothrombin = Prothrombin (Homo sapiens, UniProt P00734); assay: Inhibition of thrombin by spectrophotometric assay

Ki (Coagulation factor VII) [nM]	Ki (Prothrombin) [nM]	Compound
90	170	CO[C@H](COS(=O)(=O)[O-])C(=O)N[C@H](C(=O)N1[C@H](C(=O)NCCC2=CC[N+](=C(N)N)C2)C[C@@H]2C[C@H](O)[C@@H](O[C@H]3O[C@H](CO)[C@@H](O)[C@H](O)[C@H]3O)C[C@@H]21)C(C)C [DYSINOSIN B]
124	550	CO[C@H](COS(=O)(=O)[O-])C(=O)N[C@H](C(=O)N1[C@H](C(=O)NCCC2=CC[N+](=C(N)N)C2)C[C@@H]2C[C@H](O)[C@@H](O)C[C@@H]21)C(C)C [DYSINOSIN C]
108	452	CO[C@H](COS(=O)(=O)[O-])C(=O)N[C@H](CC(C)C)C(=O)N1[C@H](C(=O)NCCC2=CC[N+](=C(N)N)C2)C[C@@H]2C[C@H](O)[C@@H](O)C[C@@H]21 [DYSINOSIN A]
1320	> 5100	CO[C@H](CO)C(=O)N[C@H](C(=O)N1[C@H](C(=O)NCCC2=CC[N+](=C(N)N)C2)C[C@@H]2C[C@H](O)[C@@H](O)C[C@@H]21)C(C)C [DYSINOSIN D]
